From patent US20140248212A1, “NON-IMMUNOGENIC POSITRON EMISSION TOMOGRAPHY REPORTER GENE SYSTEMS” (THE REGENTS OF THE UNIVERSITY OF CALIFORNIA, priority 2011, published 2014)
“Also recorded” adds a separate entry of the source.

Experiments:
[1] = system: TK2-N93D-expressing L1210 cells; test: L-18F-FMAU uptake assay, transduced L1210 cells (TK2-N93D); assay type: cell-based, murine
From the text: To overcome the negative feedback limitation of TK2, a point mutation-N93D, was engineered. The work done by Piskur and colleagues on the structurally related Drosophila melanogaster deoxyribonucleoside kinase (see, e.g. Welin, M., et al. FEBS J 272:3733-3742, 2005) led one to predict that the N93D mutation would reduce the feedback inhibition of TK2 by dTTP. This prediction was confirmed by a comparison between the wild type (WT) and the TK2-N93D mutant in a kinase assay in which increasing concentrations of dTTP were added to inhibit TK2 enzymatic activity (FIG. 8B). We then determined whether the enhanced resistance to feedback inhibition translates into improved TK2-N93D catalytic activity towards the L-[^18F]FMAU substrate. The murine leukemic cell line L1210 was engineered to express the WT and mutated PRG. PRG-expressing L1210 cell lines were sorted to similar levels of gene expression, using enhanced yellow fluorescent protein (eYFP) as a co-linked fluorescent marker. […] It was also examined whether the expression of TK2-N93D had detrimental effects on cellular physiology (criterion 4 for PRGs). […] In contrast, sr39tk overexpression induced a 4-fold increase in dTTP pools (FIG. 9C). […] These findings provide evidence that the utility of sr39tk is limited not only by its immunogenicity but also by its effects on normal cellular physiology.
The L1210 cell line (see, e.g. Jordheim, L. P., et al. (2004) Clin. Cancer Res. 10, 5614-5621) was a gift. Cells were cultured at 5% v/v CO2 and 37° C. in RPMI supplemented with 5% v/v FCS. […]
L1210 cells transduced with the indicated PET reporter genes (L1210-PRG) were seeded at a density of 500,000 cells/well in 24-well plates. […] Radioactivity was measured using a gamma counter.

[2] = system: L1210 tumors expressing TK2-N93D; test: microPET/CT of SCID mice bearing L1210-PRG tumors (TK2-N93D); assay type: in vivo; details: for in vivo L-18F-FMAU uptake compared with WT TK2-expressing tumors: 3 h post-injection
From the text: To compare TK2, TK2-N93D and HSV1-sr39tk in vivo, PRG-expressing L1210 cells were implanted subcutaneously in SCID mice that were then scanned with L-[^18F]FMAU (FIG. 10A) and [^18F]FHBG (FIG. 10C) on consecutive days. […] Signals obtained with sr39tk were slightly higher than those obtained with the human TK2-N93D PRG (the difference was not statistically significant). […] L-[^18F]FMAU accumulation in TK2-N93D transduced tumors was ˜20 times higher than the accumulation in tumors transduced with the control (eYFP only) vector. While this ratio is higher than the 6.67 ratio reported for WT TK2 as a PRG with D-[^18F]FEAU as the PRP (see, e.g. Ponomarev, V., et al. J Nucl Med 48:819-826, 2007), the HSV1-sr39tk/[^18F]FHBG combination still outperforms the TK2-N93D/L-[^18F]FMAU combination by ˜2-fold. The significance of the 2-fold difference for the sensitivity of the new TK2-N93D PRG can be further investigated in the animal models discussed below (see, e.g. Gerth, M. L., et al. Biochem Biophys Res Commun 354:802-807, 2007; Liu, L., et al. Nucleic Acids Res 37:4472-4481, 2009; Iyidogan, P., et al. Biochemistry 47:4711-4720, 2008; Lutz, S., et al. Chimia (Aarau) 63:737-744 2009).
Animal studies were approved and carried out according to specific guidelines. C57/BL6 mice were injected with the indicated probe and underwent micro-PET/CT analyses at 1- and 3-h post probe injection (Inveon, Siemens Medical Solutions USA Inc.; microCAT; Imtek Inc.). For tumor imaging studies, SCID mice were injected subcutaneously on day −7 in the right and left flanks with 1×10^6 L1210-PRG-expressing cells in 50% v/v phosphate-buffered saline and 50% v/v Matrigel™ (BD Biosciences). For imaging experiments, mice were kept warm and under gas anesthesia (2% v/v isoflurane) and were injected intravenously with 200 μCi of ^18F-labeled probes. A 3-h interval was allowed between probe administration and microPET/CT scanning Static microPET images were acquired for 600 s. Image data were evaluated in three-dimensional histograms and reconstructed with a zoom factor of 2.1 using three-dimensional ordered set expectation maximization (OSEM) with 2 iterations followed by MAP (maximum a posteriori) reconstruction with 18 iterations (beta=0.1). Images were analyzed using OsiriX Imaging Software Version 3.8.

Baf-3 cells = test: Test of mutant htk2 reporter genes in Baf-3 cells; assay type: cell-based
From the text: The sensitivity of the described mutant htk2 imaging reporter genes can be evaluated through cell culture assays and PET imaging in mouse tumor models. […] Further tests regarding the effect of expressing these reporter genes on various cells can be used to determine other potential targets. […] Several enhanced htk2 mutant reporter genes have been designed and tested. Though the examples herein describe different probes and investigate the L probes mainly in mice, other mammals and in particular, humans are also within the scope of the invention. Silico models can be used to derive additional enhanced mutants from human htk2.

Cc1cn([C@H]2O[C@@H](CO)[C@H](O)[C@H]2[18F])c(=O)[nH]c1=O [L-^18F-FMAU, 2′-deoxy-2′-^18F-5-methyl-1-β-L-arabinofuranosyluracil]
increase in L-18F-FMAU uptake relative to cells expressing WT TK2 ([1]; 1 h uptake, FIG. 27C): 1.5 fold | L-[18F]FMAU accumulation compared to WT TK2 transduced cells ([1]; FIG. 8C): increased accumulation; also recorded: increased uptake | decrease of L-18F-FMAU uptake ([1]; in the presence of 5 μM D-dT): 75% | in vivo L-18F-FMAU uptake compared with WT TK2-expressing tumors [2]: nearly double | in vivo L-18F-FMAU uptake compared with WT TK2-expressing tumors ([2]; listed as 18F-L-FMAU): two-fold increase | in vivo L-18F-FMAU uptake compared with WT TK2-expressing tumors ([2]; listed as L-[^18F]FMAU): improved accumulation | L-[18F]FMAU accumulation relative to tumors transduced with control (eYFP only) vector ([2]; 3 hrs post-injection): ~20 times | test of reporter system with probe (Baf-3 cells): successfully tested
